Read-outs that look alike come from different tables or passages of the source.
Assays:
T47D breast cancer cells = assay: Anti-proliferation assay in T47D cell (Cyquant, day 6); format: cell-based, human; details: anti-proliferation, T47D cells, read-out: T47D IC50
Text: T47D is a human breast cancer cell line commonly used in biomedical research involving the hormonal expression of cancer cells. T47D cells are distinct from other human breast cancer cells in that their progesterone receptors (PR) are not regulated by estradiol, a hormone that is abundant within the cells themselves. T47D cells have been employed in studies of the effects of progesterone on breast cancer and the corresponding transcriptional regulation caused by introduced drugs. The cells have been noted to be extremely resistant to estrogens and antiestrogens.
T47D breast cancer cells from American Type Culture Collection (ATCC, HTB-133) were plated at 3000 cells/well in 96-well plates, and were incubated in RPMI 1640 medium (Gibco, 31800105) with 10% Fetal Bovine Serum (FBS, Biowest, FB-1058) at 37° C., 5% CO2. After overnight incubation, baseline values were measured of the samples from one plate using Cyquant reagent (Invitrogen, C35011) following manufacturer's recommendations. Cells were incubated with the detection reagent for 1 hour at 37° C., and then the fluorescence was measured with excitation at 485 nm and emission at 535 nm using Spectra Max M5 (Molecular Devices, HD-4HYSG3196). Other plates were dosed with compounds at a ten-point dose concentration from 10 μM to 0.51 nM in a 3-fold dilution scheme. On day 6 after compound addition, Cyquant reagent was added and the fluorescence was measured using Spectra Max M5. The IC50 values of the test compound's anti-proliferation activity were determined from the baseline subtracted viability readout curve using Xlfit5/GraphPad Prism 5 software.

CDK2/CyclinE1 = biological target: T1, CDK2/CyclinE1 (Homo sapiens, UniProt P24941); assay: Assay for inhibition of CDK2/CyclinE1 (Caliper microfluidic kinase assay); format: biochemical
T1 construct: purchased SignalChem C29-18G
Procedure, shortened: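 Caliper microfluidic mobility-shift assay: 5 nM CDK2/CyclinE1, 100 μM ATP, 5 μM FL-18 peptide (5-FAM-QSPKKG-NH2) in pH 7.5 HEPES buffer with MgCl2, DTT, BSA, Triton X-100. Incubated 3 hours at room temperature, EDTA-stopped; IC50 from 4-parameter sigmoidal fit.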

CDK6/CyclinD3 = biological target: T2, CDK6/CyclinD3 (Homo sapiens, UniProt Q00534); assay: Assay for inhibition of CDK6/CyclinD3 (Caliper microfluidic kinase assay); format: biochemical
T2 construct: purchased Carna 04-107
T2 sequence (Q00534 whole entry): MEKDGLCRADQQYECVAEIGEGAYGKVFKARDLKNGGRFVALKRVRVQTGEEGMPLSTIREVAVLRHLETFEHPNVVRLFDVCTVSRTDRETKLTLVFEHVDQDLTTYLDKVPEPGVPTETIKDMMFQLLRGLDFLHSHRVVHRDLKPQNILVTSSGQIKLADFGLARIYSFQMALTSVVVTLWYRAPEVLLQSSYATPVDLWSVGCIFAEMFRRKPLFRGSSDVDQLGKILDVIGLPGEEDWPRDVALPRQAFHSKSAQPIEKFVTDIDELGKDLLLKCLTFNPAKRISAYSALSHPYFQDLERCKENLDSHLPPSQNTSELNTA
T2 sequence (P30281 whole entry partner): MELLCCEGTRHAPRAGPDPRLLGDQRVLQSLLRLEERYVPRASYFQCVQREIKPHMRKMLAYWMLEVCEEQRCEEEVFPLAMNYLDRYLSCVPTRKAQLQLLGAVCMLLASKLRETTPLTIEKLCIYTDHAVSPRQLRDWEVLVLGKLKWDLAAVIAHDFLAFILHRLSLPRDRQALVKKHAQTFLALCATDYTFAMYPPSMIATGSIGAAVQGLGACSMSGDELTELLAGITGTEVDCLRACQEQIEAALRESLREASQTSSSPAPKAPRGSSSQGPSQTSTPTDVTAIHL
Description: The CDK6 enzyme assay for IC50 determination was performed as follows. Microfluidic kinase detection technology (Caliper) was used to monitor the phosphorylation of peptide substrate by CDK6/CyclinD3. The total reaction volume is 15 μL containing buffer A (100 mM HEPES (pH 7.5), 0.1% BSA, 0.01% Triton X-100, 1 mM DTT, 10 mM MgCl2, 10 μM Sodium Orthovanadate, 10 μM Beta-Glycerophosphate), 300 μM ATP, 2 nM CDK6/CyclinD3 (Carna, 04-107), 1 μM FL-34 (5-FAM-[…]), and the test compound at appropriate dilutions in DMSO. All components were added to the 384-well plate (Corning, 4514), and incubated at Room Temperature for 3 hours. The reaction was terminated by addition of 15 μL Stop Buffer (180 mM HEPES (pH 7.5), 20 mM EDTA, Coating-3 reagent (PerkinElmer, 760050)). The plate was then loaded on Caliper EZ Reader (EZ Reader II, PerkinElmer, HD-4HYSG2772), and the reaction mixtures including substrate and product were sipped into the microfluidic chip for separation and detection. The IC50 values of the test compound were determined by fitting the inhibition curves by 4 parameter sigmoidal dose-response model using the Xlfit5/GraphPad Prism 5 software.

CDK4/CyclinD1 = biological target: T3, CDK4/CyclinD1 (Homo sapiens, UniProt P11802); assay: Assay for inhibition of CDK4/CyclinD1 (Caliper microfluidic kinase assay); format: biochemical
T3 construct: purchased Thermofisher PR8064A
T3 sequence (P11802 whole entry): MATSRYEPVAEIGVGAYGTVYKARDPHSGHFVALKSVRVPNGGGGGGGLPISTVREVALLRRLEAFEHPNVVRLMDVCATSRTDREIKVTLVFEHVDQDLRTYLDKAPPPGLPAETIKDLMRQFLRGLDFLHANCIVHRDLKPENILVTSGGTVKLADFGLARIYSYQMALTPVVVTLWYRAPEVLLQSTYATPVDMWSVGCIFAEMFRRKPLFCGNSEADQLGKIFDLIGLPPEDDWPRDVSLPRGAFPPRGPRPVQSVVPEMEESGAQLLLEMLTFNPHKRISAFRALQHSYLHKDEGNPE
T3 sequence (P24385 whole entry partner): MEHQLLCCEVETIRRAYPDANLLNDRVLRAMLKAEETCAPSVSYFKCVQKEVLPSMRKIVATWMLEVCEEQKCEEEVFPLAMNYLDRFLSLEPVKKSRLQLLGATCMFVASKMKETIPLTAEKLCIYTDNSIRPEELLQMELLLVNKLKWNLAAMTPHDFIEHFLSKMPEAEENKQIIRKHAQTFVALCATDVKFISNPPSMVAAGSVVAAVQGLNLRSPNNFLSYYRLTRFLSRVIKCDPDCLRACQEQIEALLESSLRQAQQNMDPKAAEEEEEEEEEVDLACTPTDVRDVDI
Procedure, shortened: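 Caliper microfluidic mobility-shift assay tracking phosphorylation of 1 μM FL-34 peptide by 1 nM CDK4/CyclinD1 with 200 μM ATP in HEPES pH 7.5 buffer with 10 mM MgCl2. Reaction ran 3 h at room temperature, was stopped with EDTA, and IC50 came from a 4-parameter sigmoidal fit.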

[1] = CDK2/CyclinE1, 100 μM ATP, read-out: CDK2 IC50
[2] = CDK2/CyclinE1, read-out: CDK2 IC50

IC50 (T47D breast cancer cells) [nM]	IC50 (CDK2/CyclinE1; [1]) [nM]	IC50 (CDK6/CyclinD3; CDK6/CyclinD3, 300 μM ATP) [nM]	IC50 (CDK4/CyclinD1; CDK4/CyclinD1, 200 μM ATP) [nM]	IC50 (T47D breast cancer cells; Homo sapiens, T47D) [nM]	IC50 (CDK2/CyclinE1; [2]) [nM]	IC50 (CDK6/CyclinD3; CDK6/CyclinD3) [nM]	IC50 (CDK4/CyclinD1; CDK4/CyclinD1) [nM]	SMILES	IC50 (CDK2/CyclinE1) [nM]
< 100	< 10	< 10	< 10	–	–	–	–	CC(C)c1cnn2ccc(-c3ccnc(Nc4ccc(N5CCC(N(C)C)CC5)cn4)n3)cc12 (single isomer, unassigned) [Synthetic Example 161, N-[5-[4-(dimethylamino)-1-piperidyl]-2-pyridyl]-4-(3-isopropylpyrazolo[1,5-a]pyridin-5-yl)pyrimidin-2-amine]	–
–	10 to 100	100 to 1000	10 to 100	100 to 500	–	–	–	CC(C)c1cnn2ccc(-c3nc(NC4CCN(S(C)(=O)=O)CC4)ncc3F)cc12 [Synthetic Example 10]	–
–	–	> 1000	100 to 1000	> 1000	–	–	–	CCN1CCN(Cc2ccc(Nc3ncc(F)c(-c4cc5c(C(C)C)n(C)nc5cn4)n3)nc2)CC1 [Synthetic Example 58]	–
–	< 10	10 to 100	< 10	< 100	–	–	–	CC(C)c1cnn2ccc(-c3nc(Nc4ccc(N5CCOCC5=O)cn4)ncc3F)cc12 [compound 2]	–
–	> 1000	100 to 1000	10 to 100	> 1000	–	–	–	CC(C)c1cnn2ccc(-c3nc(Nc4ccc(CN5CCN6CCCC6C5)cn4)ncc3F)cc12 (centres unmarked) [compound 8]	–
–	100 to 1000	10 to 100	< 10	100 to 500	–	–	–	CC(C)c1cnn2ccc(-c3nc(Nc4ccc(N5CCC(N(C)C)CC5)cn4)ncc3F)cc12 [compound 9]	–
–	100 to 1000	10 to 100	10 to 100	100 to 500	–	–	–	Cc1nc(Nc2ncc(F)c(-c3ccn4ncc(C(C)C)c4c3)n2)ccc1C(=O)N1CCC(NC2CC2)CC1 [compound 11]	–
–	–	10 to 100	10 to 100	100 to 500	–	–	–	CC(C)c1cnn2ccc(-c3nc(Nc4ccc(N5CCOCC5)cn4)ncc3F)cc12 [compound 13]	–
–	100 to 1000	100 to 1000	10 to 100	500 to 1000	–	–	–	CC(C)c1cnn2ccc(-c3nc(Nc4ccc(CN5CCOCC5=O)cn4)ncc3F)cc12 [compound 15]	–
–	–	100 to 1000	10 to 100	500 to 1000	–	–	–	O=C1COCCN1c1ccc(Nc2ncc(F)c(-c3ccn4ncc(C5CCOCC5)c4c3)n2)nc1 [compound 18]	–
–	–	10 to 100	10 to 100	500 to 1000	–	–	–	CC(C)c1cnn2ccc(-c3nc(Nc4ccc(N5CCOCC5=O)c(C(F)(F)F)c4)ncc3F)cc12 [compound 23]	–
–	–	–	–	< 100	100 to 1000	10 to 100	< 10	COc1nc(-c2nc(Nc3ccc(N4CCOCC4=O)cn3)ncc2C)cc2c1nc(C)n2C(C)C [compound 75]	–
–	–	–	–	100 to 500	> 1000	10 to 100	10 to 100	COc1nc(-c2nc(Nc3ccc(C(=O)N4CCC(NC5CC5)CC4)c(C)n3)ncc2F)cc2c1nc(C)n2C(C)C [compound 86]	–
–	–	–	–	100 to 500	–	10 to 100	< 10	CCN1CCN(Cc2ccc(Nc3ncc(F)c(-c4cc5c(ncn5C(C)C)c(OC)n4)n3)nc2)CC1 [compound 87]	–
–	–	–	–	–	> 1000	10 to 100	10 to 100	CCN1CCN(Cc2ccc(Nc3ncc(F)c(-c4cc5c(nc(C)n5C(C)C)c(OC)n4)n3)nc2)CC1 [compound 95]	–
–	–	–	–	–	100 to 1000	100 to 1000	10 to 100	COc1nc(-c2nc(NC3CCN(S(C)(=O)=O)CC3)ncc2F)cc2c1nc(C)n2C(C)C [compound 102]	–

IC50 (T47D breast cancer cells) [nM]	IC50 (CDK2/CyclinE1; [1]) [nM]	IC50 (CDK6/CyclinD3; CDK6/CyclinD3, 300 μM ATP) [nM]	IC50 (CDK4/CyclinD1; CDK4/CyclinD1, 200 μM ATP) [nM]	IC50 (T47D breast cancer cells; Homo sapiens, T47D) [nM]	IC50 (CDK2/CyclinE1; [2]) [nM]	IC50 (CDK6/CyclinD3; CDK6/CyclinD3) [nM]	IC50 (CDK4/CyclinD1; CDK4/CyclinD1) [nM]	SMILES	IC50 (CDK2/CyclinE1) [nM]
–	> 1000	10 to 100	< 10	100 to 500	–	–	–	COc1nc(-c2nc(Nc3ccc(N4CCNCC4=O)cn3)ncc2F)cc2c1nc(C)n2C(C)C [compound 107]	–
–	> 1000	10 to 100	< 10	100 to 500	–	–	–	COc1nc(-c2nc(Nc3ccc(N4CCN(CC(F)(F)F)CC4=O)cn3)ncc2F)cc2c1nc(C)n2C(C)C [compound 124]	–
–	> 1000	< 10	< 10	–	–	–	–	COc1nc(-c2nc(Nc3ccc(N4CCN(C5CCNCC5)CC4=O)cn3)ncc2F)cc2c1nc(C)n2C(C)C [compound 139]	–
–	< 10	< 10	< 10	–	–	–	–	Cc1nn2ccc(-c3ccnc(Nc4ccc(N5CCC(N(C)C)CC5=O)cc4)n3)cc2c1C(C)C (centres unmarked) [compound 177]	–
–	< 10	< 10	< 10	–	–	–	–	CC(C)c1cnn2ccc(-c3ccnc(Nc4ccc5c(c4)CS(=O)(=O)C5)n3)cc12 [compound 179]	–
–	10 to 100	10 to 100	10 to 100	–	–	–	–	CC(C)c1cnn2ccc(-c3ccnc(Nc4ccc(N5CCC(O)CC5=O)cn4)n3)cc12 (centres unmarked) [compound 183]	–
–	< 10	10 to 100	< 10	–	–	–	–	CC(C)c1cnn2ccc(-c3ccnc(Nc4ccc(N5CCC(C)(N)CC5=O)cc4F)n3)cc12 (centres unmarked) [compound 213]	–
–	< 10	< 10	< 10	< 100	–	–	–	CNC1CCCN(c2ccc(Nc3nccc(-c4ccn5ncc(C(C)C)c5c4)n3)cc2)C1=O (centres unmarked) [compound 215]	–
–	10 to 100	< 10	< 10	< 100	–	–	–	CNC1CCCN(c2ccc(Nc3nccc(-c4ccn5nc(C)c(C(C)C)c5c4)n3)cc2)C1=O (centres unmarked) [compound 217]	–
–	< 10	10 to 100	< 10	–	–	–	–	CC(C)c1cnn2ccc(-c3ccnc(Nc4ccc(N5CCNCC5=O)cc4F)n3)cc12 [compound 224]	–
–	< 10	10 to 100	< 10	–	–	–	–	CC(C)(C)c1cnn2ccc(-c3ccnc(Nc4ccc(N5CCNCC5=O)cc4F)n3)cc12 [compound 225]	–
–	< 10	< 10	< 10	< 100	–	–	–	CC(C)c1cnn2ccc(-c3ccnc(Nc4ccc(N5CCNCC5=O)cc4)n3)cc12 [compound 226]	–
–	< 10	10 to 100	10 to 100	–	–	–	–	Cc1nc2c(F)nc(-c3ccnc(Nc4ccc(S(N)(=O)=O)cc4)n3)cc2n1C(C)C [compound 288]	–
–	< 10	< 10	< 10	–	–	–	–	CC(C)n1cnc2c(F)nc(-c3ccnc(Nc4ccc(N5CCC(C)(N)CC5=O)cc4F)n3)cc21 (centres unmarked) [compound 292]	–
–	< 10	10 to 100	< 10	–	–	–	–	CC(C)n1cnc2c(F)nc(-c3ccnc(Nc4ccc(S(N)(=O)=O)cc4)n3)cc21 [compound 297]	–

SMILES	IC50 (T47D breast cancer cells) [nM]	IC50 (CDK2/CyclinE1; [1]) [nM]	IC50 (CDK6/CyclinD3; CDK6/CyclinD3, 300 μM ATP) [nM]	IC50 (CDK4/CyclinD1; CDK4/CyclinD1, 200 μM ATP) [nM]	IC50 (T47D breast cancer cells; Homo sapiens, T47D) [nM]	IC50 (CDK2/CyclinE1; [2]) [nM]	IC50 (CDK6/CyclinD3; CDK6/CyclinD3) [nM]	IC50 (CDK4/CyclinD1; CDK4/CyclinD1) [nM]	IC50 (CDK2/CyclinE1) [nM]
CNC1CCN(C(=O)c2ccc(Nc3nccc(-c4ccn5ncc(C(C)C)c5c4)n3)cc2)C1 (centres unmarked) [compound 189]	–	–	< 10	< 10	–	–	–	–	< 10

Reference: patent publication US20220296595A1, “CDK INHIBITORS” (QILU REGOR THERAPEUTICS INC., priority 2019, published 2022)
